Assay results taken from article PMC4434089 (Biotechnology, Biotechnological Equipment, 2014).
Several values for one entry are separate records, joined by “and”; a condition that tells them apart may be missing. Equal entries are not always repeated. Marks after values point to notes of the source that are not given here.

Columns and labels:
amylin [1] = experiment: NTA of amylin aggregation, alone or with amylin derivatives; format: biochemical, human; conditions: for implied effect on fibrillogenesis of amylin: NTA compared with previously published reports; for Concentration of aggregates 100–150 nm, 10 min / Concentration of aggregates 200–300 nm, 10 min / Concentration of aggregates 150–200 nm, 10 min / Concentration of aggregates 100–150 nm, 24 h / Concentration of aggregates 200–300 nm, 24 h / Concentration of aggregates 150–200 nm, 24 h: amylin 50 μmol L^−1 alone (A) or with 250 μmol L^−1 derivative, pH 7.4, duplicate; for Concentration of aggregates 100–150 nm, 10 min: 10 mmol L^−1 sodium phosphate, 50 mmol L^−1 NaCl; for Concentration of aggregates 100–150 nm, 10 min / Concentration of aggregates 150–200 nm, 10 min: p < 0.05 less than A: n1, n5, m5; for Concentration of aggregates 200–300 nm, 10 min: p < 0.05 less than A: n1, n3, n5, m1, m2, m3, m4, m5; for Concentration of aggregates 100–150 nm, 24 h: p < 0.05 less than A: n1, n2, m5, significantly more: m2; for Concentration of aggregates 200–300 nm, 24 h: p < 0.05 less than A: n1, n2, n3, n4, n5, m5; for Concentration of aggregates 150–200 nm, 24 h: p < 0.05 less than A: n1, n2, n5, m5; for number of 200–300 nm aggregates at 24 h vs amylin only: amylin:derivative 50:250 μmol L^−1, p < 0.05; for effect on amylin aggregation over 24 h: all size ranges, amylin:derivative 50:250 μmol L^−1, vs amylin only; for concentration of 200–300 nm aggregates, with derivative: similar to or more than amylin only
Description: NTA measurements were performed with a NanoSight LM20 instrument (NanoSight, United Kingdom) equipped with a 640 nm laser and a temperature controlled sample chamber. […] The sample temperature was maintained at 37 °C for the entire duration of the experiment. These experimental conditions were similar to that used for a previously reported cytotoxicity experiment,[73] thus allowing correlation of results obtained from the two techniques. […] Once again, samples were maintained at 37 °C and 60 s video footage were recorded every 10 min for the first hour and then at 24 h. All videos were captured with the single shutter and gain modes. Analysis was performed using NanoSight NTA version 2.2 software with a viscosity setting of 0.70.

[2] = system: amylin-mediated cytotoxicity; design: method as in PMID 20093026; conditions: cited from earlier work
amylin [3] = system: amylin; design: method as in 2 sources, ref 23 = [23]; PMID 9878384; doi:10.1006/jmbi.1998.2299; Goldsbury C Kistler J Aebi U Arvinte T Cooper GJS J Mol Biol. 1999 285 33 39 9878384 10.1006/jmbi.1998.2299 ||| ref 26 = [26]; PMID 9216085; doi:10.1006/jsbi.1997.3858; Goldsbury CS Cooper GJS Goldie KN Muller SA Saafi EL Gruijters WTM Misur MP J Struct Biol. 1997 119 17 27 http://dx.doi.org/10.1006/jsbi.1997.3858 9216085 10.1006/jsbi.1997.3858; conditions: cited from earlier work
full length amylin = system: full length amylin; design: method as in 2 sources, one per row (each row's own in cited_ref): ref 58 = [58]; PMID 14565847; doi:10.1042/BJ20030852; Jaikaran E Nilsson MR Clark A Biochem J. 2004 377 709 716 14565847 10.1042/BJ20030852 PMC1223903 ||| ref 68, 93 = [68]; PMID 12054816; doi:10.1016/S0022-2836(02)00164-X; Scrocchi LA Chen Y Waschuk S Wang F Cheung S Darabie AA McLaurin J Fraser PE J Mol Biol. 2002 318 697 706 12054816 10.1016/S0022-2836(02)00164-X || [93]; PMID 12648568; doi:10.1016/s1047-8477(02)00630-5; Scrocchi LA Ha K Chen Y Wu L Wang F Fraser PE J Struct Biol. 2003 141 218 227 http://dx.doi.org/10.1016/s1047-8477(02)00630-5 12648568 10.1016/s1047-8477(02)00630-5; conditions: cited from earlier work

Substance	implied effect on fibrillogenesis of amylin (amylin [1])	Concentration of aggregates 100–150 nm, 10 min (amylin [1]; NTA, 10 min, 37 °C)	Concentration of aggregates 200–300 nm, 10 min (amylin [1]; NTA, 10 min, 37 °C)	Concentration of aggregates 150–200 nm, 10 min (amylin [1]; NTA, 10 min, 37 °C)	Concentration of aggregates 100–150 nm, 24 h (amylin [1]; NTA, 37 °C)	Concentration of aggregates 200–300 nm, 24 h (amylin [1]; NTA, 37 °C)	Concentration of aggregates 150–200 nm, 24 h (amylin [1]; NTA, 37 °C)	number of 200–300 nm aggregates at 24 h vs amylin only (amylin [1]; NTA)	effect on amylin aggregation over 24 h (amylin [1]; NTA)	reduction of amylin-mediated cytotoxicity [2]	concentration of 200–300 nm aggregates, with derivative (amylin [1]; NTA)	inhibitory effect on amylin-mediated cytotoxicity [2]	also measured
NTAT [n1]	inhibit fibrillogenesis	0.5* ×10^7 aggregates/mL	0.4* ×10^7 aggregates/mL	0.5* ×10^7 aggregates/mL	0.9* ×10^7 aggregates/mL	0.8* ×10^7 aggregates/mL	1.1* ×10^7 aggregates/mL	significantly lower than in samples containing amylin only	significantly less than that observed in samples containing disaggregated amylin only	more than 40%	–	–	–
Amylin: chemically synthesized full-length human amylin, 37 amino acid long peptide (KCNTATCATQRLANFLVHSSNNFGAILSSTNVGSNTY; Islet amyloid polypeptide; UniProt P10997 34-70, looked up) [reference compound]	–	5.7 ×10^7 aggregates/mL	7.0 ×10^7 aggregates/mL	5.4 ×10^7 aggregates/mL	2.9 ×10^7 aggregates/mL	2.7 ×10^7 aggregates/mL	2.5 ×10^7 aggregates/mL	–	–	–	–	–	critical concentration of 200–300 nm aggregates for amylin-mediated cytotoxicity (amylin [1]; NTA correlated to cytotoxicity data, suggested): more than 2.1 × 10^7 aggregates per millilitre; size of toxic species of amylin (amylin [1]; NTA correlated to previously published cytotoxicity (ref 73), tentatively suggested): 200–300 nm; predominant aggregate size (amylin [1]; NTA, amylin 50 μmol L^−1 alone, 37 °C, pH 7.4, over 24 h): 150–200 nm and 200–300 nm; completion of aggregation (amylin [1]; NTA, amylin alone): complete aggregation of amylin occurs within the first hour; concentration of 100–150, […]–200 and 200–300 nm aggregates after the first hour (amylin [1]; NTA, amylin alone, stable up until 24 h): 2.5 × 10^7 – 3.0 × 10^7 aggregates per millilitre; total concentration of aggregates (amylin [1]; initial NTA, 50 μmol L^−1 amylin): 3.12 × 10^8 aggregates per millilitre; amylin growth rate (AFM) (amylin [3]; AFM): 1.1 nm/min; mass-per-length (MPL) of amylin protofibril (amylin [3]; STEM): 10 kDa nm^−1; approximate rate of amylin aggregation (amylin [3]; estimated from literature AFM and STEM values): ~11 kDa min^−1
TQRLA [n2]	increase fibrillogenesis of amylin to an aggregate that is larger than 1000 nm	4.3 ×10^7 aggregates/mL	3.4 ×10^7 aggregates/mL	2.5 ×10^7 aggregates/mL	1.5* ×10^7 aggregates/mL	2.1* ×10^7 aggregates/mL	1.5* ×10^7 aggregates/mL	significantly lower than in samples containing amylin only	–	more than 40%	–	–	concentrations of 100–150, […]–200 and 200–300 nm aggregates at 10 min vs amylin only (amylin [1]; NTA, 10 min, amylin:derivative 50:250 μmol L^−1, unpaired t-test): not significantly different
FLVHSS [n3]	increase fibrillogenesis of amylin to an aggregate that is larger than 1000 nm	2.0 ×10^7 aggregates/mL	1.4* ×10^7 aggregates/mL	1.2 ×10^7 aggregates/mL	3.4 ×10^7 aggregates/mL	1.9* ×10^7 aggregates/mL	2.1 ×10^7 aggregates/mL	significantly lower than in samples containing amylin only	small amount of aggregates of all size ranges which increases only marginally over 24 h	more than 40%	–	–	fibril formation of full length amylin in presence of derivative (full length amylin): fibril formation of full length amylin was enhanced
FLVHSS* [m3]	–	2.1 ×10^7 aggregates/mL	2.1* ×10^7 aggregates/mL	1.6 ×10^7 aggregates/mL	5.9 ×10^7 aggregates/mL	4.7 ×10^7 aggregates/mL	3.9 ×10^7 aggregates/mL	–	–	–	≥ 2.7 × 10^7 aggregates per millilitre	not to have an inhibitory effect on amylin-mediated cytotoxicity	–
STNVGS* [m5]	inhibit fibrillogenesis	0.9* ×10^7 aggregates/mL	0.8* ×10^7 aggregates/mL	0.8* ×10^7 aggregates/mL	1.6* ×10^7 aggregates/mL	1.4* ×10^7 aggregates/mL	1.3* ×10^7 aggregates/mL	significantly lower than in samples containing amylin only	significantly fewer amylin aggregates of all size ranges	more than 40%	–	–	–
NFGAIL* [m4]	–	2.7 ×10^7 aggregates/mL	1.6* ×10^7 aggregates/mL	1.5 ×10^7 aggregates/mL	4.1 ×10^7 aggregates/mL	3.3 ×10^7 aggregates/mL	2.8 ×10^7 aggregates/mL	–	–	–	≥ 2.7 × 10^7 aggregates per millilitre	not to have an inhibitory effect on amylin-mediated cytotoxicity	–
TQRLA* [m2]	–	3.9 ×10^7 aggregates/mL	2.6* ×10^7 aggregates/mL	2.4 ×10^7 aggregates/mL	3.6** ×10^7 aggregates/mL	4.6 ×10^7 aggregates/mL	7.9 ×10^7 aggregates/mL	–	–	–	≥ 2.7 × 10^7 aggregates per millilitre	not to have an inhibitory effect on amylin-mediated cytotoxicity	–
STNVGS [n5]	increase fibrillogenesis of amylin to an aggregate that is larger than 1000 nm	0.1* ×10^7 aggregates/mL	0.5* ×10^7 aggregates/mL	0.1* ×10^7 aggregates/mL	2.4 ×10^7 aggregates/mL	2.0* ×10^7 aggregates/mL	1.4* ×10^7 aggregates/mL	significantly lower than in samples containing amylin only	small amount of aggregates of all size ranges which increases only marginally over 24 h	more than 40%	–	–	–
